Assay [1] has as its target T1, bradykinin 1 receptor (B1R) of the rat (Rattus norvegicus, UniProt P97583).
T1 construct: expressed in transfected cells
T1 sequence (P97583 1-337): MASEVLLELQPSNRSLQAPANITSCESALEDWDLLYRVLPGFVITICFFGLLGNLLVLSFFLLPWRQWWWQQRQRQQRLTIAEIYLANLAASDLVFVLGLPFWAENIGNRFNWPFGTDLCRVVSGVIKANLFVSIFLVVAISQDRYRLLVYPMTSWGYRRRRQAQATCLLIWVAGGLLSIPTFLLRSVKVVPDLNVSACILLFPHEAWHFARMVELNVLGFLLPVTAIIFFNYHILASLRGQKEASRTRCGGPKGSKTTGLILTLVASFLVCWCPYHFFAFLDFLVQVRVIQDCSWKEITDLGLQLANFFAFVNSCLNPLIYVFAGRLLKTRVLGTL
In words: FLIPR Ca2+ assay, B1R antagonism, rat. Conditions: CHO-K1, 10 μM test substance; CHO K1 cells with rat B1R gene (rB1R cells); Des-Arg9-bradykinin at EC80; % inhibition compared with the maximum achievable inhibition; read-out: B1R antagonism, rat [10 μM] % inhibition. In kind it is cell-based. The gist of the method: (§1)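 CHO K1 cells stably expressing human or rat B1R, loaded with Fluo-4 and read in FLIPR (ex 488, em 540 nm, peak fluorescence). Test compound 10 μM preincubated 10-20 min, then EC80 agonist added (Lys-Des-Arg9-bradykinin for human, Des-Arg9-bradykinin for rat); % inhibition relative to maximum achievable inhibition.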

In assay [2] the target is T2, human bradykinin 1 receptor (B1R) (Homo sapiens, UniProt P46663).
T2 construct: expressed in transfected cells
T2 sequence (P46663 1-353): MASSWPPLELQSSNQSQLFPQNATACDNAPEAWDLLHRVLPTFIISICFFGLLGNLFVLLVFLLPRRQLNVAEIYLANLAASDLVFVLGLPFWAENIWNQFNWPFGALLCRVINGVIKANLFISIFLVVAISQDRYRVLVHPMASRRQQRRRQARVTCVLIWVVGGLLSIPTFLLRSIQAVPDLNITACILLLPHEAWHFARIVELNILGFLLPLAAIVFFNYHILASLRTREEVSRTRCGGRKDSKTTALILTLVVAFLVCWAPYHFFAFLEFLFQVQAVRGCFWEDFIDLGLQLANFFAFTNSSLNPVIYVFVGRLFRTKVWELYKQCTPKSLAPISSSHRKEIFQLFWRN
In words: FLIPR Ca2+ assay, B1R antagonism, human. Conditions: 10 μM test substance; CHO K1 cells with human B1R gene (hB1R cells); Lys-Des-Arg9-bradykinin at EC80; % inhibition compared with the maximum achievable inhibition; read-out: B1R antagonism, human [10 μM] % inhibition. In kind it is cell-based. The gist of the method:
as §1

SMILES strings stand for the structures.

As usually defined, the inhibition is the relative decrease from the control value, in per cent. Consider `COc1cc(C)c(S(=O)(=O)N(CCOCC(=O)N2CCC(OCCN3CCCC3)(c3cccnc3)CC2)C2CC2)c(C)c1` [Example 3, N-cyclopropyl-4-methoxy-2,6-dimethyl-N-(2-(2-oxo-2-(4-(pyridin-3-yl)-4-(2-(pyrrolidin-1-yl)ethoxy)piperidin-1-yl)ethoxy)ethyl)benzenesulfonamide], for which the inhibition at 10 µM in assay [1] was 101%; in assay [2], 100%.

With `COc1cc(C)c(S(=O)(=O)N(CCOCC(=O)N2CCC(OCCN3CCCC3)(c3cccnc3)CC2)Cc2cccnc2)c(C)c1` [Example 5, 4-methoxy-2,6-dimethyl-N-(2-(2-oxo-2-(4-(pyridin-3-yl)-4-(2-(pyrrolidin-1-yl)ethoxy)piperidin-1-yl)ethoxy)ethyl)-N-(pyridin-3-ylmethyl)benzenesulfonamide], the inhibition at 10 µM in assay [1] was 102%; in assay [2], 100%.

As for `Cc1cccc(Cl)c1S(=O)(=O)N1CCCCC1CCCC(=O)N1CCC(OCCN2CCCC2)(c2cccc(F)c2)CC1` (centres unmarked) [Example 85, 4-[1-[(2-chloro-6-methyl-phenyl)sulfonyl]-piperidin-2-yl]-1-[4-(3-fluorophenyl)-4-(2-pyrrolidin-1-yl-ethoxy)-piperidin-1-yl]-butan-1-one], the inhibition at 10 µM stood at 98% in assay [1] and 100% in assay [2].

With `COc1cc(C)c(S(=O)(=O)N2CCCCC2COCC(=O)N2CCC(OCCN3CCCC3)(c3cccc(F)c3)CC2)c(C)c1` (centres unmarked) [Example 83, 1-[4-(3-fluorophenyl)-4-(2-pyrrolidin-1-yl-ethoxy)-piperidin-1-yl]-2-[[1-[(4-methoxy-2,6-dimethyl-phenyl)sulfonyl]-piperidin-2-yl]-methoxy]-ethanone], the values for the inhibition at 10 µM in assay [1] and in assay [2] were 99% and 100%, respectively.

Take `COc1cc(C)c(S(=O)(=O)N(C)CCOCC(=O)N2CCC(OCCN3CCN(C)CC3)(c3cccnc3)CC2)c(C)c1` [Example 29, 4-methoxy-N,2,6-trimethyl-N-(2-(2-(4-(2-(4-methylpiperazin-1-yl)ethoxy)-4-(pyridin-3-yl)piperidin-1-yl)-2-oxoethoxy)ethyl)benzenesulfonamide]: the values for the inhibition at 10 µM in assay [1] and in assay [2] were 101% and 99%, respectively.

For the compound `CN1CCN(CCOC2(c3cccnc3)CCN(C(=O)COCC3CCc4ccccc4N3S(=O)(=O)c3ccc(Cl)c(Cl)c3)CC2)CC1` (centres unmarked) [Example 38, 2-((1-(3,4-dichlorophenylsulfonyl)-1,2,3,4-tetrahydroquinolin-2-yl)methoxy)-1-(4-(2-(4-methylpiperazin-1-yl)ethoxy)-4-(pyridin-3-yl)piperidin-1-yl)ethanone], the inhibition at 10 µM in assay [1] was determined as 98%; in assay [2], 74%.

In the case of `COc1cc(C)c(S(=O)(=O)N2CCCC[C@H]2COCC(=O)N2CCC(OCCN3CCCC3)(c3ccncc3)CC2)c(C)c1` [Example 57, 2-[[(2S)-1-[(4-methoxy-2,6-dimethyl-phenyl)sulfonyl]-piperidin-2-yl]-methoxy]-1-[4-pyridin-4-yl-4-(2-pyrrolidin-1-yl-ethoxy)-piperidin-1-yl]-ethanone], the inhibition at 10 µM in assay [1] turned out to be 103%; in assay [2] it was 100%.

In the case of `COc1cc(C)c(S(=O)(=O)N2CCCCC2COCC(=O)N2CCC(OCCCN3CCCC3)(c3cccnc3)CC2)c(C)c1` (centres unmarked) [Example 40, 2-((1-(4-methoxy-2,6-dimethylphenylsulfonyl)piperidin-2-yl)methoxy)-1-(4-(pyridin-3-yl)-4-(3-(pyrrolidin-1-yl)propoxy)piperidin-1-yl)ethanone], the inhibition at 10 µM amounted to 102% in assay [1] and 99% in assay [2].

For the compound `COc1cc(C)c(S(=O)(=O)N2c3ccccc3OCC2COCC(=O)N2CCC(OCCN3CCCC3)(c3cccnc3)CC2)c(C)c1` (centres unmarked) [Example 106, 2-[[4-[(4-methoxy-2,6-dimethyl-phenyl)sulfonyl]-3,4-dihydro-2H-[1,4]benzoxazin-3-yl]-methoxy]-1-[4-pyridin-3-yl-4-(2-pyrrolidin-1-yl-ethoxy)-piperidin-1-yl]-ethanone], the inhibition at 10 µM was 101% in assay [1] and 100% in assay [2].

For the compound `COc1cc(C)c(S(=O)(=O)N2CCCC[C@H]2COCC(=O)N2CCC(OCCn3ccnc3)(c3cccnc3)CC2)c(C)c1` [Example 60, 1-[4-[2-(1H-imidazol-1-yl)-ethoxy]-4-pyridin-3-yl-piperidin-1-yl]-2-[[(2S)-1-[(4-methoxy-2,6-dimethyl-phenyl)sulfonyl]-piperidin-2-yl]-methoxy]-ethanone], the inhibition at 10 µM came to 102% in assay [1] and 100% in assay [2].

As for `Cc1cc(S(=O)(=O)N2CCCCC2CCC(=O)N2CCC(OCCCN3CCCC3)(c3cccnc3)CC2)c(C)cc1Cl` (centres unmarked) [Example 43, 3-(1-(4-chloro-2,5-dimethylphenylsulfonyl)piperidin-2-yl)-1-(4-(pyridin-3-yl)-4-(3-(pyrrolidin-1-yl)propoxy)piperidin-1-yl)propan-1-one], the inhibition at 10 µM in assay [1] was 67%; in assay [2], 86%.

With `Cc1cc(S(=O)(=O)N2CCCCC2CCC(=O)N2CCC(OCCN3CCCCC3)(c3cccnc3)CC2)c(C)cc1Cl` (centres unmarked) [Example 13, 3-(1-(4-chloro-2,5-dimethylphenylsulfonyl)piperidin-2-yl)-1-(4-(2-(piperidin-1-yl)ethoxy)-4-(pyridin-3-yl)piperidin-1-yl)propan-1-one], the inhibition at 10 µM in assay [1] is 50%; in assay [2], 101%.

In the case of `O=C(CC1CCCCN1S(=O)(=O)c1cccc(C(F)(F)F)c1)N1CCC(OCCN2CCCCC2)(c2cccnc2)CC1` (centres unmarked) [Example 10, 1-(4-(2-(piperidin-1-yl)ethoxy)-4-(pyridin-3-yl)piperidin-1-yl)-2-(1-(3-(trifluoromethyl)phenylsulfonyl)piperidin-2-yl)ethanone], the figures for the inhibition at 10 µM in assay [1] and in assay [2] were 44% and 104%, respectively.

Source of the values: patent US8318769B2, “Substituted sulfonamide compounds” (Gruenethal GmbH, priority 2008, dated 2012).
